The numbers were not newly measured in patent US11571385B2, “Self-emulsifiable composition, production method therefor, nanoemulsion, and production method therefor” (Kewpie Corporation, priority 2017, dated 2023), which cites them from elsewhere.

For the data set the following is noted: solubility in water, Japanese Pharmacopoeia class.
Turning to `COc1ccc2c(c1)c(CC(=O)OCC(=O)O)c(C)n2C(=O)c1ccc(Cl)cc1` [Acemetacin, acemetacin], the solubility entry is “almost not soluble”.

Turning to `COc1ccc2c(c1)c(CC(=O)O)c(C)n2C(=O)c1ccc(Cl)cc1` [Indomethacin, indomethacin], the solubility result is “almost not soluble”.

As for `C=CC[C@@H]1/C=C(\C)C[C@H](C)C[C@H](OC)[C@H]2O[C@@](O)(C(=O)C(=O)N3CCCC[C@H]3C(=O)O[C@H](/C(C)=C/[C@@H]3CC[C@@H](O)[C@H](OC)C3)[C@H](C)[C@@H](O)CC1=O)[C@H](C)C[C@@H]2OC` [Tacrolimus, tacrolimus], the solubility entry is “almost not soluble”.
